One data set relates to tardive dyskinesia. In words: Clinical cases: acamprosate treatment of tardive dyskinesia. In kind it is in vivo, human. As for the experimental part:
Case 1: A person had long-standing tardive dyskinesia induced by treatment of schizoaffective disorder with a variety of neuroleptics and mood stabilizers. Their TD was characterized by side to side movements of the jaw, grimacing movements, rocking of the trunk, and continual involuntary kicking, leg-crossing, and twisting movements of their legs and feet. At the time they presented for treatment of their TD they were treated for their mental illness with lamotrigine and quetiapine, a second-generation neuroleptic.
After additional weeks free of TD symptoms they discontinued the acamprosate. Their TD symptoms returned, as did feelings of anxiety and agitation that had not been present while they were on the combination of acamprosate and perphenazine.
To test the hypothesis that the efficacy of acamprosate was related to adequate time above a threshold blood level the patient was asked to try taking 1332 mg of acamprosate once a day.
CASE 2: A person had been treated with acamprosate for several years for TD due to exposure to several neuroleptics for schizoaffective disorder. They were currently treated with lamotrigine and quetiapine for their mental illness, and was taking acamprosate 1032 mg+999 mg+1032 mg on a three times daily basis. […] To test the therapeutic threshold hypothesis the patient was asked to try 1032 mg of acamprosate once a day in the morning.

For data set [1] the following is noted: cited from earlier work.
The test system of data set [2] is abnormal chewing movements produced in rats by haloperidol. The data set can be described thus: Rat model of tardive dyskinesia (haloperidol-induced abnormal chewing movements). In kind it is in vivo. The note with it: steadily-maintained blood level; rats exposed several weeks to haloperidol. As for the experimental part: Acamprosate is tested using a rat model of tardive dyskinesia looking at abnormal chewing movements produced in rats by exposing them for several weeks to haloperidol, a potent first-generation neuroleptic. […]

The conditions of data set [3]: cited from earlier work. The source holds these as a separate data set.
Data set [4] concerns cultured rat hippocampus neurons. In words: Organotypic hippocampal slice model of glutamate neurotoxicity after acamprosate pre-treatment. In kind it is cell-based. The note with it: 200 μM calcium acamprosate for 8 hr or 5 days; removed for up to eight hours; challenge NMDA 50 uM or mGluR agonist. As for the experimental part:
The study is designed to test whether pre-treatment with acamprosate can have long-term neuronal protective effects against glutamate neurotoxicity. The study uses an in vitro organotypic hippocampal slice model. The study assesses whether less than 24 hours per day of exposure to a sufficient level of acamprosate can offer 24-hour therapeutic actions in neuropsychiatric disorders. […] This supports, among other things, the therapeutic use of acamprosate in neuropsychiatric disorders because the latter are related to the effect of acamprosate to decrease glutamate effects at NMDA and metabotropic glutamate receptors.
Hippocampal slices derived from 8-day-old Sprague Dawley rats are plated and subsequently exposed to a relatively acute (8 hour) or more chronic (5 day) acamprosate treatment. […] The slices are then placed in normal medium with propidium iodide for 24 hr and assessed for neurotoxicity/neuroprotection as described below. […]
For the final medium change, the plates are moved into normal media containing propidium iodide (PI) added to each well for 24 hours. PI only penetrates cell membranes of damaged or potentially dying cells, binding to DNA to produce a bright, intensified red fluorescence at 630 nm. […] Fluorescence is recorded in arbitrary units, then converted to percent of control, facilitating comparison across multiple cultures and controlling for variation between litters.

The test system of data set [5] is Per2(Brdm1) deletion or ENT1(-/-) mice. The data set can be described thus: Transgenic mouse models with movement disorders and hyperglutamatergic states. The note with it: steadily-maintained blood level. In kind it is in vivo.
Data set [6] is described as follows: Gastric retention time of swellable acamprosate tablet in dog model (fed mode induction with alpha-lipoic acid). It counts as in vivo. The note with it: retention of 800 mg swellable tablet; After 125 mg alpha-lipoic acid given 15 minutes before; four beagle dogs.

“Also recorded” adds a separate entry of the source.

In the case of `CC(=O)NCCCS(=O)(=O)O` [acamprosate, calcium N-acetylhomotaurinate], the “relief of TD symptoms” value with tardive dyskinesia (Case 1, 666 mg three times a day) is given as “partial relief of symptoms; also recorded: did not give their complete relief”; in the data set on tardive dyskinesia (Case 1, 999 mg three times a day), “complete relief of their TD”; with tardive dyskinesia (Case 1, 1332 mg once a day), “free of involuntary movements of TD”. For the same molecule, the anxiety and agitation entry in the data set on tardive dyskinesia (Case 1, 999 mg three times a day, with perphenazine) was “relief of anxiety and agitation”; in the data set with tardive dyskinesia (Case 2, when involuntary movements were relieved, with lamotrigine and quetiapine), “less anxiety and agitation”. For the same molecule, the side effects result in the data set with tardive dyskinesia (Case 1, 1332 mg once a day) was “significant GI side effects of diarrhea and abdominal cramps”. Besides, the “relief of involuntary movements of TD” value in the data set with tardive dyskinesia (Case 2, 999 mg three times a day) was “did not give full relief from their involuntary movements”; with tardive dyskinesia (Case 2, 1032 mg in the morning plus second dose of 1032 mg 8 to 10 hours later), “complete relief of symptoms”; with tardive dyskinesia (Case 2, 1032 mg once a day in the morning), “free of movements in the morning and early afternoon but movements returned in the evening”; with tardive dyskinesia (Case 2, 1032 mg+999 mg+1032 mg three times daily), “completely relieved their involuntary movements of TD”. In addition, the “decrease of bioavailability by food” value in data set [1] is on record as “approximately 30%”. Further, the abnormal chewing movements result in data set [2] was “reduce or eliminate the abnormal movements”. For the same molecule, the solubility entry in data set [3] was “high solubility”. The “solubility in gastric juice” value in data set [3] (gastric juice) was “immediately and completely soluble in gastric juice”. Besides, the “effect on post-synaptic effects of glutamate agonists after removal of acamprosate from the culture medium” value in data set [4] is reported as “persistent effect”. For the same molecule, the abnormal movements entry in data set [5] is given as “reduce or eliminate the abnormal movements”.
With `O=C(O)CCCCC1CCSS1` (stereo not drawn) [alpha-lipoic acid], in data set [6], the “Average gastric retention time” value was 2.8 h, the “Maximum gastric retention time” value was 5 h and the “Minimum gastric retention time” value is 1.5 h.

Values taken from patent US9421179B2, “Acamprosate formulations, methods of using the same, and combinations comprising the same” (Synchroneuron Inc., priority 2011, dated 2016).
